Laboratory results as given in PubChem BioAssay AID1963977 (Molecular Pharmacology Branch, DTP, NCI, 2024).
pIC50: −log10 of the molar value.

System: 624824-186-R-J3-PDC multicell spheroids, viability
Assay: Anticancer human tumor 624824-186-R-J3-PDC patient-derived colon adenocarcinoma cell line growth inhibition [PI3K]
Conditions: for pIC50: curve of first compound; for viability, T/C: stronger effect = lower value
Source text: Combinatorial screen of targeted agents with the PI3K inhibitors inavolisib, alpelisib, duvelisib, and copanlisib in multi-cell type tumor spheroids
A high-throughput screen of multi-cell type tumor spheroids was designed to identify active combinations of targeted small molecules and PI3K pathway inhibitors. Complex spheroids include a stromal component modeled by human endothelial cells (HUVEC) and fibroblasts modeled by human mesenchymal stem cells (MSCs). The concentration ranges selected for each drug and investigational agent were based upon clinically achievable concentrations if the clinical Cmax of the agent was known.
Compounds. The drugs and investigational agents: inavolisib (NSC800729), alpelisib (NSC765974), duvelisib (NSC772469), copanlisib (NSC816437), ipatasertib (NSC767898), afuresertib (NSC778305), talazoparib (NSC767125), sapanisertib (NSC764658), selumetinib (NSC741078), tovorafenib (DAY101, NSC766906), vemurafenib (NSC761431), ravoxertinib (NSC781343), sotorasib (NSC818433), MRTX1133 (NSC 836407), abemaciclib (NSC 768073), palbociclib (NSC758247), venetoclax (NSC 766270), SY5609 (NSC837396), enzalutamide (NSC755605), and darolutamide (NSC825331), were obtained from the National Cancer Institute (NCI) Developmental Therapeutics Program Chemical Repository. The FDA-approved anticancer drug set is available from the NCI Developmental Therapeutics Program. […] The stock solutions were prepared in dimethyl sulfoxide (DMSO, Sigma-Aldrich, St. Louis, MO, cat. D2650) at 800-fold the tested concentration and stored at -70 degrees C prior to their use. All drugs and investigational agents were tested over a range starting from a high concentration at or near the clinical Cmax and decreasing in half-log increments. If the clinical Cmax for an agent had not been determined, the highest concentration tested was 10 microM.
Cell Culture. All cells were maintained in an incubator at 37 degrees C and 5% CO2 with 95% humidity. The PDC lines were cultured according to standard operating procedures established by the NCI PDMR (https://pdmr.cancer.gov/sops/default.htm). All PDCs were thawed and cultured in Matrigel-coated flasks prepared with a working solution of 1X Ham's F-12 nutrient mix, without supplementation (Invitrogen, Waltham, MA, cat. 11765054), 100 U/mL penicillin-streptomycin (Invitrogen, cat. 15140122), and 2.5% Matrigel (Corning Inc., Corning, NY, cat. 354248) for the first three passages. The 354836-022-R-J1-PDC, 475296-252-R-J1-PDC, and 997726-040-R-J2-PDC lines were cultured in 6A media, which includes advanced DMEM/F-12 (Thermo Fisher Scientific, cat. 12634028), 10 mM HEPES (Thermo Fisher Scientific, cat. 15630080), 1X GlutaMAX supplement (Thermo Fisher Scientific, cat. 35050061), 0.1 mg/mL primocin (InvivoGen, San Diego, CA, cat. ant-pm-2), 10% defined fetal bovine serum, heat inactivated (HyClone Laboratories Inc., Logan, UT, cat. SH30070.03HI), 50% L-WRN conditioned media (ATCC, cat. CRL-3276), 1.25 mM N-Acetyl-L-cysteine (Sigma-Aldrich, cat. A9165), 10 mM nicotinamide (Sigma-Aldrich, cat. N0636), 1X B-27 supplement (Thermo Fisher Scientific, cat. 17504044), 1X N-2 supplement (Thermo Fisher Scientific, cat. 17502048), and 10 microM Y-27632 dihydrochloride (Tocris Bioscience, Bristol, United Kingdom, cat. 1254). The 624824-186-R-J2-PDC line was cultured in 6C/Colon 1B media, which includes all 6A media components plus 50 ng/mL human EGF recombinant protein (Thermo Fisher Scientific, cat. PHG0311). […]

[1] = second compound 0.00316 µM, first compound 0.0316 µM
[2] = second compound 0.00316 µM, first compound 0.1 µM
[3] = second compound 0.01 µM, first compound 0.0316 µM
[4] = second compound 0.01 µM, first compound 0.1 µM
[5] = second compound 0.0316 µM, first compound 0.0316 µM
[6] = second compound 0.0316 µM, first compound 0.1 µM
[7] = second compound 0.1 µM, first compound 0.0316 µM
[8] = second compound 0.1 µM, first compound 0.1 µM
[9] = second compound 0.316 µM, first compound 0.0316 µM
[10] = second compound 0.316 µM, first compound 0.1 µM
[11] = second compound 1 µM, first compound 0.0316 µM
[12] = second compound 1 µM, first compound 0.1 µM
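Further: spheroids exposed to agents for seven days before luminescence read.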
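Wherever viability, T/C is given: luminescent signal used as a stand-in for spheroid viability; percent viability relative to DMSO vehicle control wells taken as 100%.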

Cn1nccc1Nc1nccc(-c2ccn(C(CO)c3ccc(Cl)c(F)c3)c(=O)c2)n1 (centres undefined) + CC(Nc1ccc2c(c1)OCCn1cc(N3C(=O)OCC3C(F)F)nc1-2)C(N)=O
pIC50 (second compound 0.00316 µM): 5.08
pIC50 (second compound 0.01 µM): 5.39
pIC50 (second compound 0.0316 µM): 5.59
pIC50 (second compound 0.1 µM): 5.90
pIC50 (second compound 0.316 µM): 6.20
pIC50 (second compound 1 µM): 6.47
viability, T/C [1]: 104%
viability, T/C [2]: 91.1%
viability, T/C (second compound 0.00316 µM, first compound 0.316 µM): 85%
viability, T/C (second compound 0.00316 µM, first compound 1 µM): 75.9%
viability, T/C (second compound 0.00316 µM, first compound 3.16 µM): 58.8%
viability, T/C (second compound 0.00316 µM, first compound 10 µM): 48.1%
viability, T/C [3]: 93.9%
viability, T/C [4]: 93%
viability, T/C (second compound 0.01 µM, first compound 0.316 µM): 90%
viability, T/C (second compound 0.01 µM, first compound 1 µM): 65.4%
viability, T/C (second compound 0.01 µM, first compound 3.16 µM): 54.9%
viability, T/C (second compound 0.01 µM, first compound 10 µM): 43.9%
viability, T/C [5]: 97.5%
viability, T/C [6]: 107%
viability, T/C (second compound 0.0316 µM, first compound 0.316 µM): 80.7%
viability, T/C (second compound 0.0316 µM, first compound 1 µM): 68.2%
viability, T/C (second compound 0.0316 µM, first compound 3.16 µM): 46.2%
viability, T/C (second compound 0.0316 µM, first compound 10 µM): 37.2%
viability, T/C [7]: 102%
viability, T/C [8]: 95%
viability, T/C (second compound 0.1 µM, first compound 0.316 µM): 80.6%
viability, T/C (second compound 0.1 µM, first compound 1 µM): 52.2%
viability, T/C (second compound 0.1 µM, first compound 3.16 µM): 36.4%
viability, T/C (second compound 0.1 µM, first compound 10 µM): 24.8%
viability, T/C [9]: 105%
viability, T/C [10]: 95%
viability, T/C (second compound 0.316 µM, first compound 0.316 µM): 76.6%
viability, T/C (second compound 0.316 µM, first compound 1 µM): 31.7%
viability, T/C (second compound 0.316 µM, first compound 3.16 µM): 20.2%
viability, T/C (second compound 0.316 µM, first compound 10 µM): 17.4%
viability, T/C [11]: 84.1%
viability, T/C [12]: 81.1%
viability, T/C (second compound 1 µM, first compound 0.316 µM): 51.9%
viability, T/C (second compound 1 µM, first compound 1 µM): 20.5%
viability, T/C (second compound 1 µM, first compound 3.16 µM): 15.1%
viability, T/C (second compound 1 µM, first compound 10 µM): 15.3%

Cn1ncnc1[C@H]1c2n[nH]c(=O)c3cc(F)cc(c23)N[C@@H]1c1ccc(F)cc1 + CC(Nc1ccc2c(c1)OCCn1cc(N3C(=O)OCC3C(F)F)nc1-2)C(N)=O
pIC50 (second compound 0.00316 µM): < 7.00
pIC50 (second compound 0.01 µM): < 7.00
pIC50 (second compound 0.0316 µM): < 7.00
pIC50 (second compound 0.1 µM): < 7.00
pIC50 (second compound 0.316 µM): < 7.00
pIC50 (second compound 1 µM): < 7.00
viability, T/C (second compound 0.00316 µM, first compound 0.000316 µM): 102%
viability, T/C (second compound 0.00316 µM, first compound 0.001 µM): 93.5%
viability, T/C (second compound 0.00316 µM, first compound 0.00316 µM): 101%
viability, T/C (second compound 0.00316 µM, first compound 0.01 µM): 99.7%
viability, T/C [1]: 87.8%
viability, T/C [2]: 111%
viability, T/C (second compound 0.01 µM, first compound 0.000316 µM): 97.8%
viability, T/C (second compound 0.01 µM, first compound 0.001 µM): 93.6%
viability, T/C (second compound 0.01 µM, first compound 0.00316 µM): 102%
viability, T/C (second compound 0.01 µM, first compound 0.01 µM): 95.7%
viability, T/C [3]: 101%
viability, T/C [4]: 92.1%
viability, T/C (second compound 0.0316 µM, first compound 0.000316 µM): 107%
viability, T/C (second compound 0.0316 µM, first compound 0.001 µM): 99.7%
viability, T/C (second compound 0.0316 µM, first compound 0.00316 µM): 97.5%
viability, T/C (second compound 0.0316 µM, first compound 0.01 µM): 92.8%
viability, T/C [5]: 97.4%
viability, T/C [6]: 106%
viability, T/C (second compound 0.1 µM, first compound 0.000316 µM): 94.7%
viability, T/C (second compound 0.1 µM, first compound 0.001 µM): 105%
viability, T/C (second compound 0.1 µM, first compound 0.00316 µM): 100%
viability, T/C (second compound 0.1 µM, first compound 0.01 µM): 99.8%
viability, T/C [7]: 104%
viability, T/C [8]: 106%
viability, T/C (second compound 0.316 µM, first compound 0.000316 µM): 93.8%
viability, T/C (second compound 0.316 µM, first compound 0.001 µM): 99.3%
viability, T/C (second compound 0.316 µM, first compound 0.00316 µM): 98.2%
viability, T/C (second compound 0.316 µM, first compound 0.01 µM): 91.6%
viability, T/C [9]: 96.7%
viability, T/C [10]: 100%
viability, T/C (second compound 1 µM, first compound 0.000316 µM): 90.6%
viability, T/C (second compound 1 µM, first compound 0.001 µM): 90.3%
viability, T/C (second compound 1 µM, first compound 0.00316 µM): 94%
viability, T/C (second compound 1 µM, first compound 0.01 µM): 91.9%
viability, T/C [11]: 99.1%
viability, T/C [12]: 86.6%
